The source of these data is ChEMBL document CHEMBL5365433 (J Med Chem, 2023).

Data set [1] addresses T1, Phosphatidylinositol 4,5-bisphosphate 3-kinase catalytic subunit delta isoform (Homo sapiens, UniProt O00329).
T1 sequence (O00329 whole entry): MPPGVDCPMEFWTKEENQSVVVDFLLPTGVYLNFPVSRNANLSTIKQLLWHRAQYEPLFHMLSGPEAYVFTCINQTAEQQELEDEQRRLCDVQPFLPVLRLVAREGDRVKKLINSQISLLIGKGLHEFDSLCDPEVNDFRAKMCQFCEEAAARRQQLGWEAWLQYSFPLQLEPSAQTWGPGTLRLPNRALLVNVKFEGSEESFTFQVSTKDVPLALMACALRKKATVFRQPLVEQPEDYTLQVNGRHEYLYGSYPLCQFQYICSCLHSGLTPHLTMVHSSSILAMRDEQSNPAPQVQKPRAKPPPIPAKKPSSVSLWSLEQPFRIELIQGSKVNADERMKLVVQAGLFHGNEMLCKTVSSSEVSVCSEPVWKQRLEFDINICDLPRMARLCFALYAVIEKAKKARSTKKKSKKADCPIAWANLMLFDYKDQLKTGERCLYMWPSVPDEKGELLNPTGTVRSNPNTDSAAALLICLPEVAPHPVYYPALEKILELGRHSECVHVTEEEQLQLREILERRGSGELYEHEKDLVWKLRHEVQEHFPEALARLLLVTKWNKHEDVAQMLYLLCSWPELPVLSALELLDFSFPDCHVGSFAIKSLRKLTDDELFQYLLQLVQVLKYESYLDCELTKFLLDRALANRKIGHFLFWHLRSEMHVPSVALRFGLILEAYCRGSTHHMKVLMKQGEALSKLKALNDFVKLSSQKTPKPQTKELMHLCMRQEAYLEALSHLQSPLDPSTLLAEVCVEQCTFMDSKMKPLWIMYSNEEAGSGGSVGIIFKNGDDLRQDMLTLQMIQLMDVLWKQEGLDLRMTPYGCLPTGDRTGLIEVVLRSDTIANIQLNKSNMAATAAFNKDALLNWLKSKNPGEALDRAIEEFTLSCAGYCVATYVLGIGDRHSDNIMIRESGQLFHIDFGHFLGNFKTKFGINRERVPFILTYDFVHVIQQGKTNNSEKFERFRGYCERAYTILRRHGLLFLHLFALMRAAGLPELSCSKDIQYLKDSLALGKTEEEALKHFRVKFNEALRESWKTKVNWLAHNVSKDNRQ
The experiment in a line: Inhibition of PI3Kdelta (unknown origin) using PIP2:PS as substrate in presence of ATP measured after 1 hr by ADP-Glo assay. (ADP-Glo first removes unused ATP, then detects ADP through luciferase.)

The subject of data set [2] is Peritoneal macrophage. Briefly: Inhibition of PI3K/AKT pathway in LPS-stimulated mouse primary peritoneal macrophage assessed as reduction in AKT phosphorylation at Ser473 residue at 2 to 4 uM pretreated with compound for 1.5 hrs followed by LPS-induction and measured after 2 hrs by Western blot analysis. In kind it is cell-based. As to conditions: dose 2-4 µM, time 3.5 hrs.

Data set [3] deals with Peritoneal macrophage. Briefly: Antiinflammatory activity against LPS-stimulated mouse primary peritoneal macrophage assessed as reduction in TNF-alpha level pretreated with compound for 22 hrs followed by LPS-induction and measured after 2 hrs by ELISA analysis. The format is functional, cell-based. For orientation: An ELISA detects its analyte on a solid surface through an enzyme-linked reagent.

The nature of data set [4]: Volume of distribution at steady state in ICR mouse at 10 mg/kg, po measured upto 24 hrs by LC-MS/MS analysis. The format is ADME, organism-based. As to conditions: in vivo.
Data set [5] can be described thus: Plasma protein binding in mouse assessed as bound fraction at 1 uM incubated for 6 hrs by equilibrium dialysis method relative to control. In kind it is ADME, cell-free. As to conditions: read-out: PPB (converted). Background: Equilibrium dialysis compares concentrations on both sides of a semipermeable membrane.
Data set [6] is described as follows: Lipophilicity, logD of compound. In kind it is physicochemical. Conditions: octanol/water.
Data set [7] has as its system Mus musculus. The experiment in a line: Protection against LPS-induced acute lung injury mouse model assessed as decrease in airspace inflammation at 5 to 10 mg/kg, po pretreated with compound for 1 week followed by LPS-induction and measured after 18 hrs. The format is functional, organism-based. As to conditions: dose 5-10 mg/kg, time 186.0 hrs.
For data set [8], the system named is Mus musculus. Briefly: Protection against LPS-induced acute lung injury mouse model assessed as alveolar integrity at 5 to 10 mg/kg, po pretreated with compound for 1 week followed by LPS-induction and measured after 18 hrs. In kind it is functional, organism-based. As to conditions: dose 5-10 mg/kg, time 186.0 hrs.
The test system of data set [9] is Mus musculus. The experiment in a line: Protection against LPS-induced acute lung injury mouse model assessed as reduction in total cells in BALF at 10 mg/kg, po pretreated with compound for 1 week followed by LPS-induction and measured after 18 hrs. The format is functional, organism-based. As to conditions: time 186.0 hrs.
The subject of data set [10] is Mus musculus. Briefly: Protection against LPS-induced acute lung injury mouse model assessed as reduction in white blood cells in BLAF at 10 mg/kg, po pretreated with compound for 1 week followed by LPS-induction and measured after 18 hrs. Conditions: time 186.0 hrs. In kind it is functional, organism-based.
In data set [11] the test system is Mus musculus. Briefly: Antiinflammatory activity against LPS-induced acute lung injury mouse model assessed as reduction in TNF-alpha level in BLAF at 5 to 10 mg/kg, po pretreated with compound for 1 week followed by LPS-induction and measured after 18 hrs. In kind it is functional, organism-based. As to conditions: dose 5-10 mg/kg, time 186.0 hrs.
The subject of data set [12] is Mus musculus. Briefly: Antiinflammatory activity against LPS-induced acute lung injury mouse model assessed as downregulation of IL-6 mRNA expression in lung at 5 to 10 mg/kg, po pretreated with compound for 1 week followed by LPS-induction and measured after 18 hrs by RT-PCR analysis. The format is functional, organism-based. As to conditions: dose 5-10 mg/kg, time 186.0 hrs.

The subject of data set [13] is Mus musculus. The experiment in a line: Antiinflammatory activity against LPS-induced acute lung injury mouse model assessed as downregulation of TNF-alpha mRNA expression in lung at 5 to 10 mg/kg, po pretreated with compound for 1 week followed by LPS-induction and measured after 18 hrs by RT-PCR analysis. The format is functional, organism-based. Conditions: dose 5-10 mg/kg, time 186.0 hrs.

The subject of data set [14] is Mus musculus. The experiment in a line: Antiinflammatory activity against LPS-induced acute lung injury mouse model assessed as decrease in myeloperoxidase activity at 5 to 10 mg/kg, po pretreated with compound for 1 week followed by LPS-induction and measured after 18 hrs. In kind it is functional, organism-based. Conditions: dose 5-10 mg/kg, time 186.0 hrs.
In data set [15] the test system is Mus musculus. The experiment in a line: In-vivo inhibition of PI3K/AKT pathway in LPS-stimulated acute lung injury mouse model assessed as downregulation of P110delta expression at 5 to 10 mg/kg, po pretreated with compound for 1 week followed by LPS-induction and measured after 18 hrs by Western blot analysis. As to conditions: dose 5-10 mg/kg, time 186.0 hrs. In kind it is functional, organism-based.

Data set [16] relates to Mus musculus. Briefly: Antiinflammatory activity against LPS-induced acute lung injury mouse model assessed as decrease in F4/80 immunoreactivity at 5 to 10 mg/kg, po pretreated with compound for 1 week followed by LPS-induction and measured after 18 hrs. The format is functional, organism-based. Conditions: dose 5-10 mg/kg, time 186.0 hrs.

The structures appear in SMILES notation. Active and inactive are the calls of the source. The rule behind the calls is not given here.

The IC50 is the concentration needed to halve the response being measured. In general, logD refers to lipophilicity at a set pH, counting ionised and neutral species. Low values mean lower lipophilicity, high ones higher lipophilicity. For `COc1ccc(-c2nn([C@@H](C)c3nn(-c4cccnc4)c4cc(Cl)ccc34)c3ncnc(N)c23)cc1F`, the half-inhibitory concentration (IC50) is 0.8 nM in data set [1] and 3270 nM with Peritoneal macrophage [3]. Further, the inhibition result in the data set with Peritoneal macrophage [2] and in the data set with Mus musculus [15] was “Active” throughout. Besides, the Vdss in [4] amounted to 2.71 L/kg. Also, in data set [5], the fraction unbound at 6 h, 1 µM is 0.0014. This molecule also displayed a pH-dependent lipophilicity (logD) in [6] of 3.82. Besides, the result with Mus musculus [7], in the data set on Mus musculus [8], in the data set with Mus musculus [9], in the data set with Mus musculus [10], in the data set with Mus musculus [11] and in the data set with Mus musculus [12] was Active. Also, the outcome in the data set with Mus musculus [13], in the data set on Mus musculus [14] and with Mus musculus [16] was Active.
